Laboratory results as given in ChEMBL document CHEMBL3232826.
Counter-ions that a name gives are not always drawn.

Experiments:
in vitro = conditions: dog, MDCK cells
Description: Selectivity index, ratio of CTD50 for MDCK cells to ED50 for Influenza A virus (A/California/07/09(H1N1)) pdm09

[1] = Cytotoxicity against MDCK cells assessed as cell viability after 48 hrs by MTT assay; assay type: cell-based, Canis lupus familiaris; conditions: dog, read-out: CTD50

Row | Compound | selectivity ratio (in vitro) | CC50 at 48 h [1]
1 | CC1(C)[C@@H]2CC[C@@]1(C)/C(=N/CCC/N=C1\C[C@H]3CC[C@]1(C)C3(C)C)C2 | 30 | 284 µM
2 | CC1(C)[C@@H]2CC[C@@]1(C)/C(=N/CCCCCC/N=C1\C[C@H]3CC[C@]1(C)C3(C)C)C2 | 89 | 1350 µM
3 | CC1(C)[C@@H]2CC[C@@]1(C)/C(=N/CCCCCCC/N=C1\C[C@H]3CC[C@]1(C)C3(C)C)C2 | 55 | 1260 µM
4 | CC1(C)[C@@H]2CC[C@@]1(C)/C(=N/CCCCCCCC/N=C1\C[C@H]3CC[C@]1(C)C3(C)C)C2 | 16 | 390 µM
5 | CC1(C)[C@@H]2CC[C@@]1(C)/C(=N/CCCCCCCCCCCC/N=C1\C[C@H]3CC[C@]1(C)C3(C)C)C2 | 49 | 2220 µM
6 | CC1(C)[C@@H]2CC[C@@]1(C)/C(=N/c1ccc(Cc3ccc(/N=C4\C[C@H]5CC[C@]4(C)C5(C)C)cc3)cc1)C2 | 3 | > 1070 µM
7 | CC1(C)[C@@H]2CC[C@@]1(C)/C(=N/c1ccc(Oc3ccc(/N=C4\C[C@H]5CC[C@]4(C)C5(C)C)cc3)cc1)C2 | 3 | > 1070 µM
8 | CC1(C)[C@@H]2CC[C@@]1(C)[C@H](NCCCCCCN[C@@H]1C[C@H]3CC[C@]1(C)C3(C)C)C2 | 7 | 5.4 µM
9 | CC1(C)[C@@H]2CC[C@@]1(C)[C@H](NCCCCCCCN[C@@H]1C[C@H]3CC[C@]1(C)C3(C)C)C2 | 3 | 10.4 µM
10 | CC1(C)[C@@H]2CC[C@@]1(C)[C@H](NCCCCCCCCCCCCN[C@@H]1C[C@H]3CC[C@]1(C)C3(C)C)C2 | 3 | 14.4 µM
11 | CC1(C)[C@@H]2CC[C@@]1(C)[C@H](Nc1ccc(Cc3ccc(N[C@@H]4C[C@H]5CC[C@]4(C)C5(C)C)cc3)cc1)C2 | 4 | > 638 µM
12 | CC1(C)[C@@H]2CC[C@@]1(C)[C@H](Nc1ccc(Oc3ccc(N[C@@H]4C[C@H]5CC[C@]4(C)C5(C)C)cc3)cc1)C2 | 3 | > 636 µM
13 | CN(CCCCCCN(C)[C@@H]1C[C@H]2CC[C@]1(C)C2(C)C)[C@@H]1C[C@H]2CC[C@]1(C)C2(C)C | 1 | 110 µM
14 | CN(CCCCCCCN(C)[C@@H]1C[C@H]2CC[C@]1(C)C2(C)C)[C@@H]1C[C@H]2CC[C@]1(C)C2(C)C | 17 | 698 µM
15 | CC1(C)[C@@H]2CC[C@@]1(C)/C(=N/c1ccc(Cc3ccc(N)cc3)cc1)C2 | 2 | 30.1 µM
16 | CC1(C)[C@@H]2CC[C@@]1(C)/C(=N/c1ccc(Oc3ccc(N)cc3)cc1)C2 | 8 | 32.9 µM
17 | CC(N)C1CC2CCC1C2 (stereo unspecified) |  | 1270 µM
18 | NC12CC3CC(CC(C3)C1)C2 [AMANTADINE] | 4 | 
19 | CC1(C)C2CC[C@@]1(C)C(=O)C2 [CAMPHOR] | 2 | 
20 | CC(N)C12CC3CC(CC(C3)C1)C2 (stereo unspecified) [RIMANTADINE HYDROCHLORIDE] | 5 | 
